Experimental data reported in patent US8124624B2, “Substituted sulfonamide compounds” (Gruenenthal GmbH, priority 2008, dated 2012).

Experiments:
human B1R = target: T1, human B1R (Homo sapiens, UniProt P46663); test: FLIPR Ca2+ influx assay, B1R antagonism, human (hB1R CHO K1 cells); type: cell-based; details: test substance 10 μM, CHO K1 cells stably transfected with human B1R, agonist Lys-Des-Arg9-bradykinin at EC80, % inhibition compared with maximum achievable inhibition; for inhibition at 10 µM: read-out: B1R antagonism, human [10 μM] % inhibition
T1 construct: expressed in transfected cells; host or cells: CHO K1 cells (hB1R cells)
T1 sequence (P46663 1-353): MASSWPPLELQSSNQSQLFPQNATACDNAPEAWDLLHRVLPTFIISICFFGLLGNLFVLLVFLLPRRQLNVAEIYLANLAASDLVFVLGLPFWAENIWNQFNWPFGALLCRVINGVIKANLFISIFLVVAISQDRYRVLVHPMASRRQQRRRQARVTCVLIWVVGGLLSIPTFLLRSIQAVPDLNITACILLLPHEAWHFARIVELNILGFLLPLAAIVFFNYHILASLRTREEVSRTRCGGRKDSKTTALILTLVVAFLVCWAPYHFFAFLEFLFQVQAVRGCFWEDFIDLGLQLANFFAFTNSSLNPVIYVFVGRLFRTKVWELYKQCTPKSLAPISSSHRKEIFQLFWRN
Outline: (§1)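 CHO K1 cells stably expressing human or rat B1R were loaded with Fluo-4, and Ca^2+ fluorescence was read on a FLIPR. After 10–20 min with test substance, agonist was added at EC80: Lys-Des-Arg^9-bradykinin for hB1R, Des-Arg^9-bradykinin for rB1R. % inhibition is relative to maximal inhibition; IC50 from multiple concentrations, n=2–3, N≥2.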

B1R of the rat = target: T2, B1R of the rat (Rattus norvegicus, UniProt P97583); test: FLIPR Ca2+ influx assay, B1R antagonism, rat (rB1R CHO K1 cells); type: cell-based; details: test substance 10 μM, CHO K1 cells stably transfected with rat B1R, agonist Des-Arg9-bradykinin at EC80, % inhibition compared with maximum achievable inhibition; for inhibition at 10 µM: read-out: B1R antagonism, rat [10 μM] % inhibition
T2 construct: expressed in transfected cells; host or cells: CHO K1 cells (rB1R cells)
T2 sequence (P97583 1-337): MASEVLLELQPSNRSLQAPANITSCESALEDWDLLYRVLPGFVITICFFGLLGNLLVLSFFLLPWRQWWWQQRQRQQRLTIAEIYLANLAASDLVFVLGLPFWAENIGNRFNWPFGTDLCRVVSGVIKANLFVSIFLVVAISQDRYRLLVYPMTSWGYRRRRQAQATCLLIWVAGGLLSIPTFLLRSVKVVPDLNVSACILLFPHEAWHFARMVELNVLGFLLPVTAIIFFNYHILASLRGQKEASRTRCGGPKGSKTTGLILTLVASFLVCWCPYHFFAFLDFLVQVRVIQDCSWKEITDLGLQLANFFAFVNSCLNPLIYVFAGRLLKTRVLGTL
Outline: as §1

Row | B1R antagonism, human [10 μM] % inhibition (human B1R) | B1R antagonism, rat [10 μM] % inhibition (B1R of the rat) | inhibition at 10 µM (human B1R) | inhibition at 10 µM (B1R of the rat) | SMILES
1 | – | – | 100% | 102% | COc1cc(C)c(S(=O)(=O)N2c3ccccc3CCC2COCC(=O)N2CCC(CCCN3CCCC3)(c3cccnc3)CC2)c(C)c1 (stereo not drawn) [Example 53, 2-[[1-[(4-Methoxy-2,6-dimethyl-phenyl)sulfonyl]-1,2,3,4-tetrahydro-quinolin-2-yl]-methoxy]-1-[4-pyridin-3-yl-4-(3-pyrrolidin-1-yl-propyl)-piperidin-1-yl]-ethanone]
2 | – | – | 100% | 102% | COc1cc(C)c(S(=O)(=O)N2c3ccccc3OCC2COCC(=O)N2CCC(CCCN3CCCC3)(c3cccnc3)CC2)c(C)c1 (stereo not drawn) [Example 67, 2-[[4-[(4-Methoxy-2,6-dimethyl-phenyl)sulfonyl]-3,4-dihydro-2H-[1,4]benzoxazin-3-yl]-methoxy]-1-[4-pyridin-3-yl-4-(3-pyrrolidin-1-yl-propyl)-piperidin-1-yl]-ethanone]
3 | 100% | 101% | – | – | COc1cc(C)c(S(=O)(=O)N2c3ccccc3OCC2COCC(=O)N2CCC(CCCN3CCCC3)(c3cccnc3)CC2)c(C)c1 (stereo not drawn) [Example 68, 2-[[4-[(4-Methoxy-2,6-dimethyl-phenyl)sulfonyl]-3,4-dihydro-2H-[1,4]benzoxazin-3-yl]-methoxy]-1-[4-pyridin-3-yl-4-(3-pyrrolidin-1-yl-propyl)-piperidin-1-yl]-ethanone]

Continued, compound first:

Row | SMILES | B1R antagonism, human [10 μM] % inhibition (human B1R) | B1R antagonism, rat [10 μM] % inhibition (B1R of the rat) | inhibition at 10 µM (human B1R) | inhibition at 10 µM (B1R of the rat)
4 | COc1cc(C)c(S(=O)(=O)N(CCOCC(=O)N2CCC(CCCN3CCCC3)(c3cccnc3)CC2)Cc2ccccc2)c(C)c1 [Example 38, N-Benzyl-4-Methoxy-2,6-dimethyl-N-[2-[2-oxo-2-[4-pyridin-3-yl-4-(3-pyrrolidin-1-yl-propyl)-piperidin-1-yl]-ethoxy]-ethyl]-benzenesulfonic acid amide] | 100% | 101% | – | –
5 | O=C(COCC1CCCCN1S(=O)(=O)c1ccccc1C(F)(F)F)N1CCC(CCCN2CCCC2)(c2cccnc2)CC1 (stereo not drawn) [Example 41, 1-[4-Pyridin-3-yl-4-(3-pyrrolidin-1-yl-propyl)-piperidin-1-yl]-2-[[1-[[2-(trifluoromethyl)-phenyl]sulfonyl]-piperidin-2-yl]-methoxy]-ethanone] | – | – | 100% | 104%
6 | O=C(COCC1CCCCN1S(=O)(=O)c1ccccc1C(F)(F)F)N1CCC(CCCN2CCCC2)(c2cccnc2)CC1 (stereo not drawn) [Example 42, 1-[4-Pyridin-3-yl-4-(3-pyrrolidin-1-yl-propyl)-piperidin-1-yl]-2-[[1-[[2-(trifluoromethyl)-phenyl]sulfonyl]-piperidin-2-yl]-methoxy]-ethanone] | 100% | 102% | – | –
7 | COc1cc(C)c(S(=O)(=O)N(CCOCC(=O)N2CCC(CCCN3CCCC3)(c3cccnc3)CC2)c2ccccc2)c(C)c1 [Example 48, 4-Methoxy-2,6-Dimethyl-N-[2-[2-oxo-2-[4-pyridin-3-yl-4-(3-pyrrolidin-1-yl-propyl)-piperidin-1-yl]-ethoxy]-ethyl]-N-phenyl-benzenesulfonic acid amide] | – | – | 100% | 103%
8 | COc1cc(C)c(S(=O)(=O)N2CCCCC2CCCC(=O)N2CCC(CCCN3CCCC3)(c3cccnc3)CC2)c(C)c1 (stereo not drawn) [Example 60, 4-[1-[(4-Methoxy-2,6-dimethyl-phenyl)sulfonyl]-piperidin-2-yl]-1-[4-pyridin-3-yl-4-(3-pyrrolidin-1-yl-propyl)-piperidin-1-yl]-butan-1-one] | – | – | 100% | 104%
9 | COc1cc(C)c(S(=O)(=O)N2CCCCC2CCCC(=O)N2CCC(CCCN3CCCC3)(c3cccnc3)CC2)c(C)c1 (stereo not drawn) [Example 61, 4-[1-[(4-Methoxy-2,6-dimethyl-phenyl)sulfonyl]-piperidin-2-yl]-1-[4-pyridin-3-yl-4-(3-pyrrolidin-1-yl-propyl)-piperidin-1-yl]-butan-1-one] | 100% | 103% | – | –
